Data as given in patent publication US5360818A, “1,3-dioxane derivatives having protein kinase C inhibitory activity” (Sphinx Pharmaceuticals Corporation, priority 1993, dated 1994).
pIC50: −log10 of the molar value.

Experiments:
protein kinase C = assay: Protein kinase C inhibition assay (histone H1 phosphorylation); type: biochemical; conditions: rat brain enzyme; histone H1 substrate; 10 min
Protocol: A protein kinase C (PKC) assay is designed to duplicate the in vivo conditions required for protein kinase C function. Therefore, pH, salt and cofactor concentrations are similar to physiologic levels. A lysine rich histone, H1, was used in the assay as the phosphorylation acceptor-proteinbecause it is readily available and serves as a good substrate for protein kinase C. Enzyme was prepared from rat brain and purified to apparent homogeneity as determined by a single band on silver stained SDS-polyacrylamide.
In the screening assay, phosphatidylserine (PS) and DAG were co-sonicated to form unilamellar and multilamellar vesicles. The concentration of lipids in the assay were suboptimal to maximize the detection potential of the assay for inhibitors. Potential inhibitor compounds were added to the assay in dimethylsulfoxide at three concentrations to give final inhibitor concentrations of 4.3, 43 and 218 μM, respectively. The assay was started with the addition of enzyme and stopped after 10 min by the addition of 25% trichloroacetic acid (TCA) and 1.0 mg/ml bovine serum albumin (BSA). The radioactive histone product was retained and washed on glass fiber filters that allow the unreacted ^32 p-ATP to pass through. The amount of phosphorylation was determined by the radioactivity measured in a scintillation counter. Controls were included in every assay to measure background activity in the absence of enzyme, activity in the absence of lipids, and the maximum enzyme activity with saturating levels of the activator lipids.
Results of the protein kinase C assay are shown in Table 3 in the column labeled PKC. Results are shown as IC50, which is the concentration of test compound needed to inhibit 50% of the protein kinase C activity as compared with levels of protein kinase C activity in controls.

[1] = molecular target: T1, cAMP dependent protein kinase (PKA) (Bos taurus, UniProt P00517); assay: cAMP dependent protein kinase (PKA) assay; type: biochemical; conditions: 4.3, 43 and 218 μM; 10 min
T1 construct: no regulatory subunit
Protocol: Compounds found to be inhibitors of protein kinase C were tested for inhibitory activity against cAMP dependent protein kinase (PKA). This enzyme, like protein kinase C, plays an important role in cell-cell communication and is activated by a second messenger, cAMP. Secondary screening against PKA is useful for ascertaining the selectivity of the compounds of the invention. The catalytic subunit of PKA (Sigma Chemical Company, St. Louis, Mo.) was mixed with buffer before addition of the inhibitor in dimethylsulfoxide (DMSO). Potential inhibitor compounds were added to the assay in dimethylsulfoxide at three concentrations to give final inhibitor concentrations of 4.3, 43 and 218 μM, respectively. The assay was started by the addition of 32P-ATP and the reaction was allowed to proceed for 10 min before stopping with 25% trichloroacetic acid (TCA) and 1.0 mg/ml bovine serum albumin (BSA). Phosphorylated protein was then isolated by filtration and the radioactivity was counted in a beta scintillation counter.

[2] = test system: PMA-stimulated neutrophils; assay: Neutrophil superoxide anion release assay; type: cell-based; conditions: Homo sapiens, 0.5 h, 37° C., 30 minutes, cytochrome c reduction
Protocol: Neutrophils were isolated form whole blood collected from human volunteers. All reagent materials are obtained from Sigma Chemical Company with the exception of isotonic saline (Travenol Laboratories, Inc., Deerfield, Ill.) and lymphocyte separation medium (Organon Teknika, Durham, N.C.).
Whole blood was drawn and mixed with sodium heparin to a final concentration of 10 units/ml to prevent clotting. An equal volume of 3.0 % dextran in isotonic saline was added, mixed, and allowed to settle for 30 minutes to bind red blood cells (RBC). Supernatant was removed, underlayered with lymphocyte separation medium and centrifuged for 40 min at 400 xg in a centrifuge (Beckman GPR, Norcross, Ga.). The pellet was alternately taken up in 0.2% and 1.6% NaCl to lyse RBCs before washing with Hank's Balanced Salt Solution (HBSS). […]
The neutrophil cell concentration was adjusted to 2×10^6 cells/ml with HBSS before adding 0.8 ml cells to 12×75 mm polypropylene test tubes (Fisher Scientific). […] Optical density (OD) of cytochrome c was read in a spectrophotometer (Shimadzu) at 550 nm. […] Reducing cytochrome c increases its absorbance, and the change in OD of cytochrome c is proportional to the amount of […] produced by PMA stimulation. […] Inhibition is expressed as IC50 μM and is the amount of test compound that will inhibit fifty percent of the PMA-stimulated respiratory outburst, i.e. […] production.

[3] = test system: MCF-7 human breast tumor cell line; assay: Human tumor cell growth inhibition (3H-thymidine incorporation), MCF-7; type: cell-based; conditions: MCF7, 18 to 24 hrs
Source text: (§1) MCF-7 a human breast tumor cell line and MCF-7/ADR an adriamycin resistant line of MCF-7 cells were obtained from the National Cancer Institute, Frederick, Md. CEM cells (ATCC accession number CCL 119) were obtained from the American Type Culture Collection, Rockville, Md.
(§2) Human tumor cells were trypsinized with 0.05% trypsin (GIBCO), counted with a hemacytometer and seeded at a concentration of 10,000 cells/well in a 96 well microtiter plate. After allowing cells to attach to the surface overnight, the culture medium was aspirated and replaced with 100 μl of fresh medium. Test agents were diluted to determine dose response at 2X final concentration and added in quadruplicate at 100 μl/well to bring the total volume of each well to 200 μl. The microtiter plate was then incubated at 37° C. 5% CO2 overnight for 18 to 24 hrs before ^3 H-thymidine was added at a concentration of 0.5 μCi/well in 50 μl culture medium. The plate was incubated again for 4 hrs under the same conditions as above. Supernatant was then aspirated and 50 μl of 0.05% trypsin (GIBCO) was added to each well.
(§3) Cells were checked microscopically to determine detachment from surfaces, and plates were then harvested with a cell harvester (PHD, Cambridge Technology, Inc.) Filter papers corresponding to wells were placed in scintillation vials and counted to determine the amount of ^3 H-thymidine incorporated by the cells. Test agent response was compared to a positive control of cell wells with culture media only to determine the IC50. IC50 is the concentration of test compound required to inhibit fifty percent of the incorporation of ^3 H-thymidine into proliferating cells not exposed to test agent. Uptake of 3H-thymidine is a standard test for measuring the metabolism of cells. Cells which are actively proliferating take up ^3 H-thymidine whereas cells that are not proliferating take up ^3 H-thymidine at much slower rates or not at all. Test agents that inhibit the uptake of ^3 H-thymidine thus slow the growth of cells.

[4] = test system: MCF-7/ADR adriamycin resistant line of MCF-7 cells; assay: Human tumor cell growth inhibition (3H-thymidine incorporation), MCF-7/ADR; type: cell-based; conditions: NCI/ADR-RES, 18 to 24 hrs
Source text: as §1, §2, §3

[5] = test system: keratinocytes (NHEK cells); assay: Human keratinocyte inhibition (3H-thymidine incorporation); type: cell-based
Source text: as §3
Proliferating keratinocytes (NHEK cells purchased from Clonetics, Inc., San Diego, Calif.) in second passage were grown in Keratinocyte Growth Medium (KGM) (Clonetics, Inc.) Cells were trypsinized (0.025% trypsin, Clonetics), counted with a hemacytometer (Scientific Products), and seeded at a concentration of 2,500 cells/well in a 96 well microtiter plate. After allowing cells to attach to the surface overnight, the culture medium was aspirated and replaced with 100 μl of fresh KGM. Test agents were evaluated and IC50 's were determined according to the ^3 H-thymidine incorporation procedures described as in Example 18. IC50 is the concentration of test compound required to inhibit fifty percent of the incorporation of ^3 H-thymidine into proliferating cells not exposed to test agent.

SMILES | pIC50 (protein kinase C) | inhibitory activity against cAMP dependent protein kinase (PKA) [1] | pIC50 [2] | pIC50 [3] | pIC50 [4] | pIC50 [5]
CCCCCCCCCCCCCCC[C@@H]1OC(C)OC[C@@H]1N (stereo partly drawn) [Compound 18, Threo-5-Amino-2-methyl-4-pentadecyl-1,3-dioxane] | 4.19 | no effect on PKA activity |  |  |  | 
CCCCCCCCCCCCCCC[C@@H]1OC(C)(C)OC[C@@H]1N [Compound 13, Threo-(2S, 3S) -5-Amino-2,2-dimethyl-4-pentadecyl-1,3-dioxane] | 3.92 | no effect on PKA activity |  | 5.29 | 5.20 | 
CCCCCCCCCCCCCCC[C@@H]1OC(C)(C)OC[C@H]1N (relative stereo) [Compound 5, Erythro-2,2-dimethyl-5-amino-4-pentadecyl-1,3-dioxane] | 3.89 | no effect on PKA activity | 4.88 | 5.11 | 5.18 | 
CCCCCCCCCCCCCCCC1OCOCC1N (stereo not shown) [Compound 24] | 4.08 |  |  |  |  | 
CCCCCCCCCCCCCCC[C@@H]1OC(c2ccccc2)OC[C@@H]1N (stereo partly drawn) [Compound 19, Threo-5-Amino-2-phenyl-4-pentadecyl-1,3-dioxane] | 3.74 | no effect on PKA activity |  |  |  | 

Further lines, results first:

pIC50 (protein kinase C) | inhibitory activity against cAMP dependent protein kinase (PKA) [1] | pIC50 [2] | pIC50 [3] | pIC50 [4] | pIC50 [5] | SMILES
4.54 | no effect on PKA activity | 5.82 |  |  |  | CCCCCCCCCCCCCCC[C@@H]1OC(C)(C)OC[C@H]1NC(C)=N (relative stereo) [Compound 10, Erythro-5-Acetamidino-2,2-dimethyl-4-pentadecyl-1,3-dioxane]
 |  |  |  |  | 5.19 | CCCCCCCCCCCCCCCC(O)C(CO)[N+](=O)[O-] (stereo not drawn) [Compound 3, Threo/erythro-2-Nitro-1,3-octadecanediol]
3.92 | no effect on PKA activity |  | 5.22 | 5.26 | 5.33 | CCCCCCCCCCCCCCC[C@@H]1OC(C)(C)OC[C@@H]1N (relative stereo) [Compound 6, 2,2-Dimethyl-5-amino-4-pentadecyl-1,3-dioxane]
 |  |  | 5.49 |  | 6.10 | CCCCCCCCCCCCCCC[C@H](O)[C@H](CO)NC(=O)OC(C)(C)C [Compound 11, Tert-Butyl (1S, 2S)-N-[2-hydroxy-1-(hydroxymethyl)heptadecyl]carbamate]
